SMILES strings stand for the structures. Values after ≈ are worked out from the molar mass of the structure shown.

The record followed here is patent US4002660A, “S-(4-Chlorophenyl)-3-aryl-3-hydroxypropanethioates” (Morton-Norwich Products, Inc., priority 1976, dated 1977).

Holding throughout (assay): antibacterial potency, serial dilution technique (MIC)
Type in all cases: cell-based

Experiment [1] has as its system Co. liquefaciens. Conditions: read-out: Minimum Inhibitory Concentration.
Experiment [2] has as its system S. aureus. The conditions noted are these: Staphylococcus aureus, read-out: Minimum Inhibitory Concentration.
Experiment [3] deals with He. Vaginalis. Conditions: Gardnerella vaginalis, read-out: Minimum Inhibitory Concentration.
In experiment [4] the test system is St. agalactiae. The conditions noted are these: Streptococcus agalactiae, read-out: Minimum Inhibitory Concentration.
Experiment [5] relates to P. multocida. Conditions: Pasteurella multocida, read-out: Minimum Inhibitory Concentration.

As for `O=C(CC(O)c1ccccc1)Sc1ccc(Cl)cc1` (stereo not drawn) [I, S-(4-Chlorophenyl)-3-Hydroxy-3-phenylpropanethioate], the MIC worked out at 6.25 µg/mL (≈ 21.3 µM) in experiment [1]; 6.25 µg/mL (≈ 21.3 µM) in experiment [2]; 12.5 µg/mL (≈ 42.7 µM) in experiment [3]; 3.13 µg/mL (≈ 10.7 µM) in experiment [4]; 6.25 µg/mL (≈ 21.3 µM) in experiment [5].
Take `Cc1ccc(C(O)CC(=O)Sc2ccc(Cl)cc2)cc1` (stereo not drawn) [II, S-(4-Chlorophenyl) 3-Hydroxy-3-(4-methylphenyl)propanethioate]: the MIC was 12.5 µg/mL (≈ 40.7 µM) in experiment [1]; 12.5 µg/mL (≈ 40.7 µM) in experiment [2]; 3.1 µg/mL (≈ 10.1 µM) in experiment [3]; 3.13 µg/mL (≈ 10.2 µM) in experiment [4]; 3.13 µg/mL (≈ 10.2 µM) in experiment [5].
`CCc1ccc(C(O)CC(=O)Sc2ccc(Cl)cc2)cc1` (stereo not drawn) [III, S-(4-Chlorophenyl) 3-(4-Ethylphenyl)-3-hydroxypropanethioate]: the MIC in experiment [1] is 6.25 µg/mL (≈ 19.5 µM); in experiment [2], 6.25 µg/mL (≈ 19.5 µM); in experiment [3], 6.25 µg/mL (≈ 19.5 µM); in experiment [4] it was 3.13 µg/mL (≈ 9.76 µM); in experiment [5], 6.25 µg/mL (≈ 19.5 µM).
For `O=C(CC(O)c1ccc(Cl)cc1)Sc1ccc(Cl)cc1` (stereo not drawn) [IV, S-(4-Chlorophenyl) 3-(4-Chlorophenyl)-3-hydroxypropanethioate], the MIC was 6.25 µg/mL (≈ 19.1 µM) in experiment [1]; 12.5 µg/mL (≈ 38.2 µM) in experiment [2]; 3.1 µg/mL (≈ 9.47 µM) in experiment [3]; 6.25 µg/mL (≈ 19.1 µM) in experiment [4]; 6.25 µg/mL (≈ 19.1 µM) in experiment [5].
Consider `O=C(CC(O)c1ccc(Cl)cc1Cl)Sc1ccc(Cl)cc1` (stereo not drawn) [V, S-(4-Chlorophenyl) 3-(2,4-Dichlorophenyl)-3-hydroxypropanethioate], for which the MIC was found to be 3.1 µg/mL (≈ 8.57 µM) in experiment [1]; 6.25 µg/mL (≈ 17.3 µM) in experiment [2]; 12.5 µg/mL (≈ 34.6 µM) in experiment [3]; 12.5 µg/mL (≈ 34.6 µM) in experiment [4]; 25 µg/mL (≈ 69.1 µM) in experiment [5].
Turning to `O=C(CC(O)c1ccc(Cl)c(Cl)c1)Sc1ccc(Cl)cc1` (stereo not drawn) [VI, S-(4-Chlorophenyl) 3-(3,4-Dichlorophenyl)-3-hydroxypropanethioate], the MIC in experiment [1] came out at 12.5 µg/mL (≈ 34.6 µM); in experiment [2] it was 25 µg/mL (≈ 69.1 µM); in experiment [3], 25 µg/mL (≈ 69.1 µM); in experiment [4] it was 12.5 µg/mL (≈ 34.6 µM); in experiment [5] it was 25 µg/mL (≈ 69.1 µM).
Regarding `Cc1ccc(C(O)CC(=O)Sc2ccc(Cl)cc2)cc1Cl` (stereo not drawn) [VII, S-(4-Chlorophenyl) 3-(3-Chloro-4-methylphenyl)-3-hydroxypropanethioate], the MIC is 12.5 µg/mL (≈ 36.6 µM) in experiment [1]; 12.5 µg/mL (≈ 36.6 µM) in experiment [2]; 25 µg/mL (≈ 73.3 µM) in experiment [3]; 12.5 µg/mL (≈ 36.6 µM) in experiment [4]; 25 µg/mL (≈ 73.3 µM) in experiment [5].
